Experimental findings from ChEMBL document CHEMBL1201862, “PubChem BioAssay data set” (2004) are described below.

Active and inactive are the calls of the source.

The first data set has as its target T1, Heat shock factor protein 1 (Mus musculus, UniProt P38532).
T1 sequence (P38532 whole entry): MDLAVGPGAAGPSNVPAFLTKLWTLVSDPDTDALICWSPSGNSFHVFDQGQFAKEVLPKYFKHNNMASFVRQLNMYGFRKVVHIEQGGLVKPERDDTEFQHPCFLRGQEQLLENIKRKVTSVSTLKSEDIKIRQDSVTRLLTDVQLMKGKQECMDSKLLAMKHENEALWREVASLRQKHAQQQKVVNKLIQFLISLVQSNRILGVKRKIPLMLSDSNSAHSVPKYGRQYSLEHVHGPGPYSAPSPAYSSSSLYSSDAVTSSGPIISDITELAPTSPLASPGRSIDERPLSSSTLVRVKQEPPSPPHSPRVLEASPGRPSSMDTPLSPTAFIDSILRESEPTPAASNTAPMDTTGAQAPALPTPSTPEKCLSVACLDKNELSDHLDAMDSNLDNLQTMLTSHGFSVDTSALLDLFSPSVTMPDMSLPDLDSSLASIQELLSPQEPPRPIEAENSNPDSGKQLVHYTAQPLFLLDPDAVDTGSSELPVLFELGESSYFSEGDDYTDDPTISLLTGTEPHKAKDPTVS
The experiment in a line: inhibition of MG132-induced HSE-luciferase signal, confirmation, cell-based, NIH3T3, luminescence, dose retest (AID 2382).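 Also: NIH3T3 fibroblasts with HSF1-driven luciferase reporter stressed by proteasome inhibitor MG132; luminescence from HSF1-driven luciferase expression after 8 hours of MG132 stress.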 It counts as functional.
Settings: not given
By EC50 is commonly meant the concentration giving half of the maximal effect. `O=C(CCCC(=O)N(c1ccc2c(c1)OCCO2)C(C(=O)NC1CCCCC1)c1ccc(Cl)cc1)Nc1ccccn1` (stereo unspecified): the EC50 was > 195 µM (not active).

As to `CCOC(=O)c1nnc(O)c2ccccc12`, the EC50 is listed as > 195 µM (not active).

`Cc1ccc(F)cc1NC(=O)CCNC(=O)c1ccc([N+](=O)[O-])cc1`: the concentration giving a half-maximal response (EC50) was > 195 µM (not active).

Take `COc1ccc(/C=N/NC(=O)Nc2cccc3nsnc23)cc1OC`: the EC50 was 9.51 µM (active).

Take `O=C(O)c1csc(-c2ccccc2)n1`: the EC50 is > 195 µM (not active).

Consider `COC(=O)c1cn(NC(=O)CCC2CCCC2)c(=O)c2ccccc12`, for which the EC50 is listed as > 195 µM (not active).

Regarding `CC(=O)c1cccc(NC(=O)CN2C(S)=NC(C)(C)CC2C)c1` (stereo unspecified), the EC50 is > 195 µM (not active).

In the case of `Cn1c(=O)c2c(nc(Sc3ncnn3CC(=O)N3CCOCC3)n2C)n(C)c1=O`, the EC50 was > 195 µM (not active).

With `Cc1cccc(-c2ocnc2C(=O)N2CCN(C(=O)c3cccs3)CC2)c1`, the EC50 is on record as > 195 µM (not active).

In the case of `COc1ccc(Nc2nc(Nc3ccc(OC)cc3)nc(-n3[nH]c(=O)c(C)c3C)n2)cc1`, the EC50 was 22.3 µM (active).

Take `CCCn1c(N)c(C(=O)CSc2nc3ccccc3c(=O)n2Cc2ccccc2)c(=O)[nH]c1=O`: the EC50 is recorded as > 195 µM (not active).

Turning to `COc1ccc(-n2nc3ccccc3n2)cc1`, the EC50 was > 195 µM (not active).

As for `CCCOc1ccc2cc(C(=O)NCc3ccccc3)c(=O)oc2c1`, the EC50 was 42 µM (active).

With `CC(=O)Nc1cccc(-n2c(=O)n(Cc3ccccc3)c(=O)c3[nH]cnc32)c1`, the EC50 is listed as > 195 µM (not active).

The target in a further data set is Cytochrome P450 2C19 (Homo sapiens, UniProt P33261). Description: Cytochrome panel assay with activity outcomes. Panel member name: p450-cyp2c19 Compounds with AC50 equal or less than 10 uM are considered active. The format is functional.
Cytochrome P450 2C19, sequence (P33261 whole entry): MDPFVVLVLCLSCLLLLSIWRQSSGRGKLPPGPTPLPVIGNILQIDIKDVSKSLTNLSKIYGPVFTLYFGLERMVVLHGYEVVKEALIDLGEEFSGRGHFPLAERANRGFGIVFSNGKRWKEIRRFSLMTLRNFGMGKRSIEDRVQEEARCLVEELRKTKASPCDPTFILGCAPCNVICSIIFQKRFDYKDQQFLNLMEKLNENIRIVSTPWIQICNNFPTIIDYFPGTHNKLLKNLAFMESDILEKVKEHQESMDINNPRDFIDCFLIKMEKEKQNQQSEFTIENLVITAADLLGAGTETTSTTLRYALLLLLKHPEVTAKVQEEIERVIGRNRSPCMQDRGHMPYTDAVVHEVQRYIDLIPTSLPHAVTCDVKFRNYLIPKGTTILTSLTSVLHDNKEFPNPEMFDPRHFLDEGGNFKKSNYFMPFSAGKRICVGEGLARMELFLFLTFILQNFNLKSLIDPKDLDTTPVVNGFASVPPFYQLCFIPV
Settings: not given
For orientation: AC50 means the midpoint of the concentration-response curve, whichever way the signal moves. Regarding `C#CCCCO/N=C1/C[C@@H](O)[C@@H](O)[C@@H]2[C@@H]3C(=O)N(Cc4ccccc4)C(=O)[C@H]3CC[C@@H]12`, the AC50 entry is listed as “inconclusive”.

Take `N=c1ccn2c(n1)O[C@H]1[C@@H](OP(=O)(O)O)[C@H](CO)O[C@H]12`: the AC50 result is given as “inconclusive”.

Still in this data set, the particulars now being: read-out: AC50.
For `COC(=O)[C@@]1(Cc2ccc(F)cc2)[C@H]2c3cc(C(=O)N(C)C)n(Cc4c(CO)ncc(C)c4O)c3C[C@H]2CN1C(=O)c1ccccc1`, the AC50 was 25.1 µM (inconclusive).

With `CN(C)c1ccc(-c2ccc3ncnc(N4CCNCC4)c3c2)cc1`, the AC50 is 25.1 µM (inconclusive).

Consider `CN(C)CCOC(=O)C1(c2ccccc2)CCOCC1`, for which the AC50 is 20 µM (inconclusive).

In another data set the target is T2, Cytochrome P450 1A2 (Homo sapiens, UniProt P05177).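 Also: PubChem cytochrome P450 panel assay, CYP1A2 panel member.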
T2 sequence (P05177 whole entry): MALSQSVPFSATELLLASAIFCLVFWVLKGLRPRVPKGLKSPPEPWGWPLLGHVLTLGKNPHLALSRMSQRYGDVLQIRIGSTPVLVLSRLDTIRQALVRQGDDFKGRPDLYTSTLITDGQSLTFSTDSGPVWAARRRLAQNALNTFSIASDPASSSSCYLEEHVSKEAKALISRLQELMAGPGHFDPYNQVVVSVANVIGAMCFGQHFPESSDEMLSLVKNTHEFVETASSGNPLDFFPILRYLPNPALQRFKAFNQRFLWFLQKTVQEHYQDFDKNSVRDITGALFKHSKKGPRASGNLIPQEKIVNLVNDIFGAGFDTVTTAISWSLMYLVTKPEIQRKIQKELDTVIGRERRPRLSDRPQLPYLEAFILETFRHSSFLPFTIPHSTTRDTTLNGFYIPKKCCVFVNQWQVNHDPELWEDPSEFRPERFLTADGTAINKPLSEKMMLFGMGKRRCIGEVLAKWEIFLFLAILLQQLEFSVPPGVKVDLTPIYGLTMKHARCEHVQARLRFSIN
Settings: not given
As for `COC(=O)[C@@]1(Cc2ccc(F)cc2)[C@H]2c3cc(C(=O)N(C)C)n(Cc4c(CO)ncc(C)c4O)c3C[C@H]2CN1C(=O)c1ccccc1`, the AC50 was 25.1 µM (inconclusive).

Turning to `CN1CCN(c2ncc3nc(-c4cn(C)c5ccccc45)c(=O)n(-c4ccccc4)c3n2)CC1`, the AC50 is 15.8 µM (inconclusive).

Regarding `COc1ccccc1CNc1ncnc2ccc(-c3ccccc3CN(C)C)cc12`, the AC50 is 15.8 µM (inconclusive).

In the case of `CNC(=O)[C@H](C)[C@H]1C[C@]1(C)[C@H](NC(=O)OCc1ccccc1)c1ccccc1`, the AC50 is 20 µM (inconclusive).

Consider `CCOC(=O)N1CCN(c2c(O)nc3ccc(Cl)cc3c2-c2ccccc2)CC1`, for which the AC50 is 0.158 µM (inconclusive).

For the compound `O=C(O)c1ccc(N2C=[N+]3C(=Nc4ccccc43)C2)cc1`, the AC50 was 5.01 µM (inconclusive).

For the compound `CCOC(=O)c1ccc(OC(=O)CCCCCNC(=N)N)cc1` [GABEXATE], the AC50 is 15.8 µM (inconclusive).
